Data: patent US5624831A, “Immobilized acetylcholinesterase stabilized by a film of gelatin or albumin containing trehalose” (priority 1994, dated 1997)

Key:
acetylcholinesterase [1] = biological target: T1, acetylcholinesterase (Torpedo marmorata, UniProt P07692); experiment: Analysis of pesticides in salad extracts by inhibition of acetylcholinesterase (Table IX); format: biochemical; conditions: read-out: % relative activity
T1 construct: from tissue
From the text: The analysis of the presence of these inhibitors was done following the protocol described in example 1.

torpedo fish AchE = biological target: T2, torpedo fish AchE (Torpedo marmorata, UniProt P07692); experiment: Analysis of 5 pesticides dissolved in water by inhibition of immobilized AchE (Table VIII); format: biochemical; conditions: for times less sensitivity of detection: compared with Naled, Carbofuran, Paraoxon; for sensitivity of the test (in words): in water, gelatin-trehalose protected
T2 construct: from tissue

[2] = test system: Acetylcholinesterase, extracted from torpedo fish; experiment: Stability of acetylcholinesterase-sensitized wells: residual enzymatic activity after 7 days dry storage (Table I); format: physicochemical
Protocol: After a night of incubation at 4° C., the wells were rinsed and thereafter subjected to the following analysis:
1. Control (nothing added)
2. Rinsing of the wells with buffered water (0.05 M phosphate pH 7,00) containing 15% trehalose.
3. Covering of the wells with buffered water (0.05 M phosphate pH 7,00) containing 5% gelatin (240 bloom), followed by the elimination of the gelatin without rinsing
4. Covering of the wells with buffered water (0.05 M phosphate pH 7,00) containing 5% gelatin (240 bloom) and 15% trehalose, followed by an elimination of the gelatin witout rinsing.
The gelatin was solubilized by heating at 47° C., then cooling down to 37° C. before dispensing in the wells. The wells of the microtitration plates handled in this way were placed at 4° C., 37° C. and 50° C. during 7 days in a dry incubator, then analyzed for the remaining enzymatic activity, according to Ellman's method. Results are given in adsorbances read at 412 nm (table I).

Horseradish peroxidase = experiment: Stability of immobilized peroxidase under gelatin or albumin film containing trehalose, 7 days dry storage (Table II); format: physicochemical; conditions: included in the gelifying film
Protocol: Horseradish peroxidase (0.2 mg/ml) was used to sensitize the wells of microtitration plates, following the method described in example I. After sensitization during one night at 4° C., the wells were covered either with a warm solution (47° C. for the solubilisation, 37° C. for the pouring into the wells) of a 5% gelatin solution or a 5% albumin solution, both containing trehalose in decreasing concentrations starting from a concentration of 8 mg/ml. Triton X100 at a concentration of 0.04% was added to the albumin solution, as a wetting agent. The wells were immediately emptied without rinsing and were thereafter placed at 4° C. and 37° C. duiring 7 days in a dry incubator. The remaining peroxidase activity was measured by addition to the wells of 100 μl of a solution of tetramethylbenzidine and hydrogen peroxide in a citrate-phosphate buffer at pH 5.5. The blue coloration obtained changes to yellow with sulfuric acid (100 μl, 0.5 N), added to stop the enzymatic reaction. The results are given in adsorbances read at 450 nm (table II)

acetylcholinesterase [3] = experiment: Analysis of a drug in spiked serum by inhibition of acetylcholinesterase; format: biochemical; conditions: serum of a healthy subject
Protocol: The serum of a healthy subject was spiked with increasing concentrations of pyridostygmin and thereafter analysed for the enzymatic activity of acetylcholinesterase, following the protocol already outlined in former examples. One sees in graph 1 that the detection Of the inhibitor of AchE goes down to 1 to 2 μg/ml of this drug in serum.
The serum of a healthy subject was spiked with increasing concentrations of neostygmin and thereafter analysed for the enzymatic activity of acetylcholinesterase, following the protocol already outlined in former examples. One sees in graph 2 that the detection of this inhibitor of AchE goes down to 50 ng/ml of this drug in serum.
A serum of a healthy subject was spiked with increasing concentrations of eserin and thereafter analysed for the enzymatic activity of acetylcholinesterase, following the protocol already outlined in former examples. One sees in graph 3 that the detection of this inhibitor of AchE goes down to 100 ng/ml of this drug in serum.

T1 sequence (P07692 25-590): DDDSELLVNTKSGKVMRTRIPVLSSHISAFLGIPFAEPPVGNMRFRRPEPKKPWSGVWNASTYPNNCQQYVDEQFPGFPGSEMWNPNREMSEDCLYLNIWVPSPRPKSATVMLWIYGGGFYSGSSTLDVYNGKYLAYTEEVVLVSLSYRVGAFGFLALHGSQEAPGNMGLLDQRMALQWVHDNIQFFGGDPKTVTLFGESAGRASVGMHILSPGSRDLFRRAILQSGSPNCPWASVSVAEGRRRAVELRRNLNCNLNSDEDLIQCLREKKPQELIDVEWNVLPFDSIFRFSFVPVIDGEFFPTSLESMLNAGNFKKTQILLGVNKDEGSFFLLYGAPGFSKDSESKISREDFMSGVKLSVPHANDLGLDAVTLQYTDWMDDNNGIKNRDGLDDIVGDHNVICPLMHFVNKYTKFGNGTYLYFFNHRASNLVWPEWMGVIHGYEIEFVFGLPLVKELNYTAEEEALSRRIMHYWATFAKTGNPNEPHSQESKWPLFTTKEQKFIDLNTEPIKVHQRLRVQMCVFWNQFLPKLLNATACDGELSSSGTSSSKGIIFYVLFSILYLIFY
T2 sequence (P07692 25-590): as above

Structure (SMILES) | % of Residual activity (torpedo fish AchE; 10 μg/litre in water) | % of Residual activity (torpedo fish AchE; 50 μg/litre in water) | % of Residual activity (torpedo fish AchE; 100 μg/litre in water) | % of Residual activity (torpedo fish AchE; 1000 μg/litre in water) | % of Residual activity (torpedo fish AchE; 01 μg/litre in water) | sensitivity of the test (in words) (torpedo fish AchE) | other results
CNC(=O)Oc1cccc2ccccc12 [Carbaryl] | 80% | 61% | 44% | 18% |  |  | activity at 0.01 µg/mL (acetylcholinesterase [1]): 80%; activity at 0.05 µg/mL (acetylcholinesterase [1]): 61%; activity at 0.1 µg/mL (acetylcholinesterase [1]): 51%; activity at 0.5 µg/mL (acetylcholinesterase [1]): 26%; activity at 1 µg/mL (acetylcholinesterase [1]): 28%; times less sensitivity of detection (torpedo fish AchE): 100 times
CNC(=O)Oc1cccc2c1OC(C)(C)C2 [Carbofuran] | 35% | 20% | 18% | 14% | 73% | most sensitive | 
COP(=O)(OC)OC=C(Cl)Cl [Dichlorvos] | 80% | 60% | 49% | 3% |  |  | times less sensitivity of detection (torpedo fish AchE): 100 times
COP(=O)(OC)OC(Br)C(Cl)(Cl)Br (centres unmarked) [Naled] | 11% | 0% | 0% | 0% | 73% | most sensitive | activity at 0.001 µg/mL (acetylcholinesterase [1]): 90%; activity at 0.01 µg/mL (acetylcholinesterase [1]): 63%; activity at 0.05 µg/mL (acetylcholinesterase [1]): 20%; activity at 0.1 µg/mL (acetylcholinesterase [1]): 9%; activity at 1 µg/mL (acetylcholinesterase [1]): 3%
CCOP(=O)(OCC)Oc1ccc([N+](=O)[O-])cc1 [Paraoxon] | 40% | 0% | 0% | 0% | 80% | followed closely | 
OC[C@H]1O[C@H](O[C@H]2O[C@H](CO)[C@@H](O)[C@H](O)[C@H]2O)[C@H](O)[C@@H](O)[C@@H]1O [Trehalose, α-D glucopyranosyl-α-D-glucopyranoside] |  |  |  |  |  |  | Residual enzymatic activity after storage of AchE-sensitized wells during 7 days ([2]; 4° C.): 1.88 adsorbances read at 412 nm; Residual enzymatic activity after storage of AchE-sensitized wells during 7 days ([2]; 37° C.): 0.97 adsorbances read at 412 nm; Residual enzymatic activity after storage of AchE-sensitized wells during 7 days ([2]; 50° C.): 0.12 adsorbances read at 412 nm; concentration of trehalose sufficient and necessary to stabilize the dry enzyme (Horseradish peroxidase): Two
CNC(=O)Oc1ccc2c(c1)[C@]1(C)CCN(C)[C@@H]1N2C [eserin] |  |  |  |  |  |  | detection of this inhibitor of AchE goes down to (acetylcholinesterase [3]): 100 ng/mL
CN(C)C(=O)Oc1cccc([N+](C)(C)C)c1 [neostygmin] |  |  |  |  |  |  | detection of this inhibitor of AchE goes down to (acetylcholinesterase [3]): 50 ng/mL
